# Data published in ChEMBL document CHEMBL2074452, “Mercapturic acids (N-acetylcysteine S-conjugates) as endogenous substrates for the renal organic anion transporter-1” (Mol Pharmacol, 2001).
# Tests used:
# [1] = target: T1, Solute carrier family 22 member 6 (Rattus norvegicus, UniProt O35956); experiment: TP_TRANSPORTER: inhibition of PAH uptake (PAH: 20 uM, 3-Phenyl-propyl-NAC: 1000 uM) in Xenopus laevis oocytes; format: functional, cell-based; settings: oocyte
# T1 sequence (O35956 whole entry): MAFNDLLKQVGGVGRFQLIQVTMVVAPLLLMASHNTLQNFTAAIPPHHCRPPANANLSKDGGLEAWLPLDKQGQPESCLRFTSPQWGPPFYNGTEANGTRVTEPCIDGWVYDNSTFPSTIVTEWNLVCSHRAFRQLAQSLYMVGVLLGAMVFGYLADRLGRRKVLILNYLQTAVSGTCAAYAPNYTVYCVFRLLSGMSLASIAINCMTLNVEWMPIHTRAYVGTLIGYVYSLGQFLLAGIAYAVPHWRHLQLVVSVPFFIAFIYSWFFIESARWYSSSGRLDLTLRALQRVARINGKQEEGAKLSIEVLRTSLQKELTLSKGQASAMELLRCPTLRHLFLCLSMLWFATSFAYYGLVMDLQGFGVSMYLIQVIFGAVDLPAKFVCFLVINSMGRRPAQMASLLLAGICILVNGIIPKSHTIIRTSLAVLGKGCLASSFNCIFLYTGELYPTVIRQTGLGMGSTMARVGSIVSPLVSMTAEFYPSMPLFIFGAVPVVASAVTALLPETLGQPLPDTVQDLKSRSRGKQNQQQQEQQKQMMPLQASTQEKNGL
# [2] = target: T1, Solute carrier family 22 member 6; experiment: TP_TRANSPORTER: inhibition of DNP-NAC uptake (DNP-NAC: 1 uM, 3-Phenyl-propyl-NAC: 1000 uM) in Xenopus laevis oocytes; format: functional, cell-based; settings: oocyte
# [3] = target: T1, Solute carrier family 22 member 6; experiment: TP_TRANSPORTER: inhibition of PAH uptake (PAH: 20 uM, N-acetylnorleucine: 1000 uM) in Xenopus laevis oocytes; format: functional, cell-based; settings: oocyte
# [4] = target: T1, Solute carrier family 22 member 6; experiment: TP_TRANSPORTER: inhibition of DNP-NAC uptake (DNP-NAC: 1 uM, N-acetylnorleucine: 1000 uM) in Xenopus laevis oocytes; format: functional, cell-based; settings: oocyte
# [5] = target: T1, Solute carrier family 22 member 6; experiment: TP_TRANSPORTER: inhibition of PAH uptake (PAH: 20 uM, Propyl-NAC: 1000 uM) in Xenopus laevis oocytes; format: functional, cell-based; settings: oocyte
# [6] = target: T1, Solute carrier family 22 member 6; experiment: TP_TRANSPORTER: inhibition of PAH uptake (PAH: 20 uM, Butyl-NAC: 500 uM) in Xenopus laevis oocytes; format: functional, cell-based; settings: oocyte
# [7] = target: T1, Solute carrier family 22 member 6; experiment: TP_TRANSPORTER: inhibition of DNP-NAC uptake (DNP-NAC: 1 uM, Propyl-NAC: 1000 uM) in Xenopus laevis oocytes; format: functional, cell-based; settings: oocyte
# [8] = target: T1, Solute carrier family 22 member 6; experiment: TP_TRANSPORTER: inhibition of DNP-NAC uptake (DNP-NAC: 1 uM, Butyl-NAC: 1000 uM) in Xenopus laevis oocytes; format: functional, cell-based; settings: oocyte
# [9] = target: T1, Solute carrier family 22 member 6; experiment: TP_TRANSPORTER: inhibition of PAH uptake in Xenopus laevis oocytes; format: functional, cell-based, Oocyte
# [10] = target: T1, Solute carrier family 22 member 6; experiment: TP_TRANSPORTER: inhibition of DNP-NAC uptake (DNP-NAC: 1 uM, NAC: 1000 uM) in Xenopus laevis oocytes; format: functional, cell-based; settings: oocyte
# [11] = target: T1, Solute carrier family 22 member 6; experiment: TP_TRANSPORTER: inhibition of PAH uptake (PAH: 20 uM, Allyl-NAC: 1000 uM) in Xenopus laevis oocytes; format: functional, cell-based; settings: oocyte
# [12] = target: T1, Solute carrier family 22 member 6; experiment: TP_TRANSPORTER: inhibition of DNP-NAC uptake (DNP-NAC: 1 uM, Allyl-NAC: 1000 uM) in Xenopus laevis oocytes; format: functional, cell-based; settings: oocyte
# [13] = target: T1, Solute carrier family 22 member 6; experiment: TP_TRANSPORTER: inhibition of PAH uptake (PAH: 20 uM, diCl-vinyl-NAC: 1000 uM) in Xenopus laevis oocytes; format: functional, cell-based; settings: oocyte
# [14] = target: T1, Solute carrier family 22 member 6; experiment: TP_TRANSPORTER: inhibition of DNP-NAC uptake (DNP-NAC: 1 uM, diCl-vinyl-NAC: 1000 uM) in Xenopus laevis oocytes; format: functional, cell-based; settings: oocyte
# [15] = target: T1, Solute carrier family 22 member 6; experiment: TP_TRANSPORTER: inhibition of PAH uptake (PAH: 20 uM, PentaCl-butadiene-NAC: 500 uM) in Xenopus laevis oocytes; format: functional, cell-based; settings: oocyte
# [16] = target: T1, Solute carrier family 22 member 6; experiment: TP_TRANSPORTER: inhibition of DNP-NAC uptake (DNP-NAC: 1 uM, PentaCl-butadiene-NAC: 1000 uM) in Xenopus laevis oocytes; format: functional, cell-based; settings: oocyte
# [17] = target: T1, Solute carrier family 22 member 6; experiment: TP_TRANSPORTER: inhibition of PAH uptake (PAH: 20 uM, Dodecyl-NAC: 500 uM) in Xenopus laevis oocytes; format: functional, cell-based; settings: oocyte
# [18] = target: T1, Solute carrier family 22 member 6; experiment: TP_TRANSPORTER: inhibition of DNP-NAC uptake (DNP-NAC: 1 uM, Dodecyl-NAC: 1000 uM) in Xenopus laevis oocytes; format: functional, cell-based; settings: oocyte
# [19] = target: T1, Solute carrier family 22 member 6; experiment: TP_TRANSPORTER: inhibition of DNP-NAC uptake (DNP-NAC: 1 uM, Benzyl-NAC: 1000 uM) in Xenopus laevis oocytes; format: functional, cell-based; settings: oocyte
# [20] = target: T1, Solute carrier family 22 member 6; experiment: TP_TRANSPORTER: inhibition of PAH uptake (PAH: 20 uM, Propanol-NAC: 1000 uM) in Xenopus laevis oocytes; format: functional, cell-based; settings: oocyte
# [21] = target: T1, Solute carrier family 22 member 6; experiment: TP_TRANSPORTER: inhibition of DNP-NAC uptake (DNP-NAC: 1 uM, Propanol-NAC: 1000 uM) in Xenopus laevis oocytes; format: functional, cell-based; settings: oocyte
# [22] = substrate: CC(=O)N[C@@H](CSc1ccc([N+](=O)[O-])cc1[N+](=O)[O-])C(=O)O; experiment: TP_TRANSPORTER: uptake in Xenopus laevis oocytes; format: functional, cell-based, Oocyte
molecule,measurement,setting,value
CC(=O)NC(CSCCCc1ccccc1)C(=O)O (stereo not given),Activity,[1],inhibitor [(at a rough estimate) 5 % of control]
same,Activity,[2],inhibitor [(at a rough estimate) 10 % of control]
CCCC[C@H](NC(C)=O)C(=O)O,Activity,[3],inhibitor [(at a rough estimate) 15 % of control]
same,Activity,[4],inhibitor [(at a rough estimate) 35 % of control]
CCCCSCC(NC(C)=O)C(=O)O (stereo not given),Activity,[5],inhibitor [(at a rough estimate) 10 % of control]
same,Activity,[6],inhibitor [(at a rough estimate) 5 % of control]
same,Activity,[7],inhibitor [(at a rough estimate) 30 % of control]
same,Activity,[8],inhibitor [(at a rough estimate) 5 % of control]
CCCCC/C=C\C\C=C/C=C/C=C/[C@@H](SC[C@H](NC(C)=O)C(=O)O)[C@@H](O)CCCC(=O)O,Ki,[9],9000 nM
CC(=O)N[C@@H](CS)C(=O)O [ACETYLCYSTEINE],Activity,[10],inhibitor [(at a rough estimate) 60 % of control]
C=CCSCC(NC(C)=O)C(=O)O (stereo not given),Activity,[11],inhibitor [(at a rough estimate) 10 % of control]
same,Activity,[12],inhibitor [(at a rough estimate) 15 % of control]
CC(=O)N[C@@H](CS/C(Cl)=C\Cl)C(=O)O,Activity,[13],inhibitor [(at a rough estimate) 5 % of control]
same,Activity,[14],inhibitor [(at a rough estimate) 25 % of control]
CC(=O)N[C@@H](CSc1ccc([N+](=O)[O-])cc1[N+](=O)[O-])C(=O)O,Ki,[9],1900 nM
CCSC[C@@H](NC(C)=O)C(=O)O,Ki,[9],1100 nM
CC(=O)NC(CS/C(Cl)=C(\Cl)C(Cl)=C(Cl)Cl)C(=O)O (stereo not given),Activity,[15],inhibitor [(at a rough estimate) 15 % of control]
same,Activity,[16],inhibitor [(at a rough estimate) <5 % of control]
CCCCCCCCCCCCSC[C@@H](NC(C)=O)C(=O)O,Activity,[17],inhibitor [(at a rough estimate) 15 % of control]
same,Activity,[18],inhibitor [(at a rough estimate) <5 % of control]
COC(=O)[C@@H](CSCc1ccccc1)NC(C)=O,Ki,[9],400 nM
same,Activity,[19],inhibitor [(at a rough estimate) 30 % of control]
CC(=O)NC(CSCCCO)C(=O)O (stereo not given),Activity,[20],inhibitor [(at a rough estimate) 5 % of control]
same,Activity,[21],inhibitor [(at a rough estimate) 30 % of control]
Solute carrier family 22 member 6 (Rattus norvegicus) (protein) MAFNDLLKQVGGVGRFQLIQVTMVVAPLLLMASHNTLQNFTAAIPPHHCRPPANANLSKDGGLEAWLPLDKQGQPESCLRFTSPQWGPPFYNGTEANGTRVTEPCIDGWVYDNSTFPSTIVTEWNLVCSHRAFRQLAQSLYMVGVLLGAMVFGYLADRLGRRKVLILNYLQTAVSGTCAAYAPNYTVYCVFRLLSGMSLASIAINCMTLNVEWMPIHTRAYVGTLIGYVYSLGQFLLAGIAYAVPHWRHLQLVVSVPFFIAFIYSWFFIESARWYSSSGRLDLTLRALQRVARINGKQEEGAKLSIEVLRTSLQKELTLSKGQASAMELLRCPTLRHLFLCLSMLWFATSFAYYGLVMDLQGFGVSMYLIQVIFGAVDLPAKFVCFLVINSMGRRPAQMASLLLAGICILVNGIIPKSHTIIRTSLAVLGKGCLASSFNCIFLYTGELYPTVIRQTGLGMGSTMARVGSIVSPLVSMTAEFYPSMPLFIFGAVPVVASAVTALLPETLGQPLPDTVQDLKSRSRGKQNQQQQEQQKQMMPLQASTQEKNGL,Km,[22],2 µM
